The results in this text go back to patent US9073924B2, “Azaindazoles” (GlaxoSmithKline LLC, priority 2011, dated 2015).

The IC50 is the concentration that gives 50% inhibition. High values mean weaker potency, low ones greater potency.

In the experiment the target is T1, EZH2 within the PRC2 complex (Homo sapiens, UniProt Q15910).
T1 construct: FLAG; made in house; host or cells: Sf9 cells
Description: EZH2 methyltransferase scintillation proximity assay (SPA), PRC2 complex. Type of experiment: biochemical. As to conditions: inhibition of methyltransferase activity, 3H-SAM, HeLa mononucleosome substrate, foregoing or an analogous assay. A general note: Scintillation proximity formats need no separation of bound from free tracer.
Description: Compounds contained herein were evaluated for their ability to inhibit the methyltransferase activity of EZH2 within the PRC2 complex. Human PRC2 complex was prepared by co-expressing each of the 5 member proteins (FLAG-EZH2, EED, SUZ12, RbAp48, AEBP2) in Sf9 cells followed by co-purification. Enzyme activity was measured in a scintillation proximity assay (SPA) where a tritiated methyl group is transferred from 3H-SAM to a lysine residue on Histone H3 of a mononucleosome, purified from HeLa cells. Mononucleosomes were captured on SPA beads and the resulting signal is read on a ViewLux plate reader.
Part A. Compound Preparation
Prepare 10 mM stock of compounds from solid in 100% DMSO. • 2. Set up an 11-point serial dilution (1:3 dilution, top concentration 10 mM) in 100% DMSO for each test compound in a 384 well plate leaving columns 6 and 18 for DMSO controls. • 3. Dispense 100 nL of compound from the dilution plate into reaction plates (Grenier Bio-One, 384-well, Cat#784075). Part B. Reagent Preparation Prepare the following solutions: • 1. […] Read plates • 1. Read the assay plates on the Viewlux Plate Reader utilizing the 613 nm emission filter with a 300 s read time. […]
Percent inhibition was calculated relative to the DMSO control for each compound concentration and the resulting values were fit using standard IC50 fitting parameters within the ABASE data fitting software package.

T1 sequence (Q15910 whole entry): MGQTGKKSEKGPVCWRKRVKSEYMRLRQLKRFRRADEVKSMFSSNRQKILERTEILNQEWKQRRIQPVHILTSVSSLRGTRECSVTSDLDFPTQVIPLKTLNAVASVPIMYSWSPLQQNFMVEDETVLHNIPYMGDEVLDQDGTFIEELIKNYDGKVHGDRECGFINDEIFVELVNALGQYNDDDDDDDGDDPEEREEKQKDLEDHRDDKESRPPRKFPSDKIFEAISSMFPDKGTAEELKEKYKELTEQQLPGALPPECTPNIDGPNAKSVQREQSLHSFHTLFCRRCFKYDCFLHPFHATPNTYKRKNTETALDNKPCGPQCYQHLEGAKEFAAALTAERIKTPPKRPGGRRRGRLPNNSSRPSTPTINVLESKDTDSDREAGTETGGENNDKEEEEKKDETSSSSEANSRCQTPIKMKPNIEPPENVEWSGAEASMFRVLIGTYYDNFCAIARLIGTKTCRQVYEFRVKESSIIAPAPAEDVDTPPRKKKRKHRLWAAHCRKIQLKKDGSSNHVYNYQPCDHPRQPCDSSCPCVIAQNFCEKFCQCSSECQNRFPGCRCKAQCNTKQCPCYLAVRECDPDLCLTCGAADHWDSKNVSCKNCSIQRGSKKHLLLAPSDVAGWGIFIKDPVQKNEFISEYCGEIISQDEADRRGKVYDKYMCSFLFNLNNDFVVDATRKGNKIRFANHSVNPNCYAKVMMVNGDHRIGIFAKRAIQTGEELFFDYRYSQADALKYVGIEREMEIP
T1 sequence (O75530 whole entry partner): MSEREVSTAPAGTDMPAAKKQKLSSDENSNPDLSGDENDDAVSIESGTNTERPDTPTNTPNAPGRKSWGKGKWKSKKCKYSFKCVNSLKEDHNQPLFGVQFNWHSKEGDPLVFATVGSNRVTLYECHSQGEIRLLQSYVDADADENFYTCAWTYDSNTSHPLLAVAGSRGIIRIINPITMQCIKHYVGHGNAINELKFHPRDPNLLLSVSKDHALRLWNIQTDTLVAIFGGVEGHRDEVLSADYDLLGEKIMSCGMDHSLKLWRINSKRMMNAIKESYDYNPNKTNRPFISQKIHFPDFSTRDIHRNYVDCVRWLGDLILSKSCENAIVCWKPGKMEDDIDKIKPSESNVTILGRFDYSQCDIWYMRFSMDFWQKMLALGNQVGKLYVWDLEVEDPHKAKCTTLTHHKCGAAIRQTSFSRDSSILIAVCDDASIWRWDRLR
T1 sequence (Q15022 whole entry partner): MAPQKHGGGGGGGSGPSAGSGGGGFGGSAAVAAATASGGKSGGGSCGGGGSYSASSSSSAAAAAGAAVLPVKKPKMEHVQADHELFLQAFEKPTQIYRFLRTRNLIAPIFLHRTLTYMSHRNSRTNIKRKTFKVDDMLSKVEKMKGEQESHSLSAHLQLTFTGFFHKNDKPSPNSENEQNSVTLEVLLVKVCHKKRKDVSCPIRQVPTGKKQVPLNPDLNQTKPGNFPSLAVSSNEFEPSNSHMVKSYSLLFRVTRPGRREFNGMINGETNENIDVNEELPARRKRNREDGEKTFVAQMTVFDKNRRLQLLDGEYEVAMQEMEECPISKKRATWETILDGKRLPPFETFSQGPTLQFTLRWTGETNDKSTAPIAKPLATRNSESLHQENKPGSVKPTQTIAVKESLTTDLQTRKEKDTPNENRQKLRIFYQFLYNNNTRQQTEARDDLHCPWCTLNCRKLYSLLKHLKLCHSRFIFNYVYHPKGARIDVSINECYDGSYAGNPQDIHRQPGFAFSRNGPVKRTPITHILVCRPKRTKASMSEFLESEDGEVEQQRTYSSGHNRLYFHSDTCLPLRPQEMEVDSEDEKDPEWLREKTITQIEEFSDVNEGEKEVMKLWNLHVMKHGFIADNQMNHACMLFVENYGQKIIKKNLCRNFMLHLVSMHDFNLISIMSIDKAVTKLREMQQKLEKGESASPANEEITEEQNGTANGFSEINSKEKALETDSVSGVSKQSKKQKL
T1 sequence (Q09028 whole entry partner): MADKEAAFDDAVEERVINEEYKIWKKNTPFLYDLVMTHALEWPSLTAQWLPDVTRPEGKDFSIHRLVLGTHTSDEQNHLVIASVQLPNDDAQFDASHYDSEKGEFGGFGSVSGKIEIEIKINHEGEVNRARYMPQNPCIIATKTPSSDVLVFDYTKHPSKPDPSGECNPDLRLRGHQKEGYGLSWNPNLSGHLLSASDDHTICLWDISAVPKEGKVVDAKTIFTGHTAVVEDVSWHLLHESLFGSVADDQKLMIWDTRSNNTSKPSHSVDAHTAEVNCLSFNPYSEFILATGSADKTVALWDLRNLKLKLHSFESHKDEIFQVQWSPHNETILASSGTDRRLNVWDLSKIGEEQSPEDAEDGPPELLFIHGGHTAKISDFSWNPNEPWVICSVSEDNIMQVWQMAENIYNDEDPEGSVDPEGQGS
T1 sequence (Q6ZN18 whole entry partner): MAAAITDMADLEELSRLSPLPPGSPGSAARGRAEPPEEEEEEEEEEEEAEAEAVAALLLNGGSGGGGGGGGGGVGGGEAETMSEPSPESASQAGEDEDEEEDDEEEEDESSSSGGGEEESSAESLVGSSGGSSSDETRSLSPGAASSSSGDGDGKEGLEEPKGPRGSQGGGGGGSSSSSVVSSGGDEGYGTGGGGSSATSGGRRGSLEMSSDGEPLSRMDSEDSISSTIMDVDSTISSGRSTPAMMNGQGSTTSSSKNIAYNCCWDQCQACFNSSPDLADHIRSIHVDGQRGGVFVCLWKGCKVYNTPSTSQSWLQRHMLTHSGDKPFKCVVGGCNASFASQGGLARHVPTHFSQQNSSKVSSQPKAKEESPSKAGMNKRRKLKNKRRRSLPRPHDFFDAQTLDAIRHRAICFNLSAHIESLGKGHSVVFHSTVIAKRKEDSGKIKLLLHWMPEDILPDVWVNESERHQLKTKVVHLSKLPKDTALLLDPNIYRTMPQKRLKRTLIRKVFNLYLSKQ

The substance “6-{[4-(Aminocarbonyl)phenyl]amino}-N-[(4,6-dimethyl-2-oxo-1,2-dihydro-3-pyridinyl)methyl]-1-(1-methylethyl)-1H-pyrazolo[3,4-b]pyridine-4-carboxamide [Ex 86]” had an IC50 of 142 nM.
As for “N-[(4,6-Dimethyl-2-oxo-1,2-dihydro-3-pyridinyl)methyl]-1-(1-methylethyl)-6-(2-phenylethyl)-1H-pyrazolo[3,4-b]pyridine-4-carboxamide [Ex 32]”, the figure is 856 nM.
